{
  "source": "patent US11697646B2",
  "about": "“Triazole N-linked carbamoyl cyclohexyl acids as LPA antagonists” (BRISTOL-MYERS SQUIBB COMPANY, priority 2017, dated 2023)",
  "biological_target": "T1, human LPA1 (Homo sapiens, UniProt Q92633)",
  "T1 construct": "expressed in transfected cells; host or cells: Chinese hamster ovary (CHO) cells",
  "T1 sequence (Q92633 whole entry)": "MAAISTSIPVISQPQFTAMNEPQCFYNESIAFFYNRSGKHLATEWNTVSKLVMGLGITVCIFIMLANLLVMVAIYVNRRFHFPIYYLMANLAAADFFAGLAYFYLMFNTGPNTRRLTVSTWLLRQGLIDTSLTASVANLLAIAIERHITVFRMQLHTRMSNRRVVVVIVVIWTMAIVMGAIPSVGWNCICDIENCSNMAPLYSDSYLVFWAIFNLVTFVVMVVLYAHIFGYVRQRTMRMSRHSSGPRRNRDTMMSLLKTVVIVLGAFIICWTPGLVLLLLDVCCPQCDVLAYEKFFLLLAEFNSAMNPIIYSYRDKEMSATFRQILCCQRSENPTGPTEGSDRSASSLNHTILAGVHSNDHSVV",
  "test": "LPA1 functional antagonist assay (calcium flux)",
  "assay_type": "cell-based",
  "details": "CHO cells overexpressing human LPA1; calcium flux induced by 10 nM LPA; read-out: hLPA1 IC50",
  "experimental": "The effectiveness of compounds of the present invention as LPA1 inhibitors can be determined in an LPA1 functional antagonist assay as follows:\nThe cells were then equilibrated to room temperature for 30 minutes before the assay. […] IC50 values were determined by fitting data to a 4-parameter logistic equation (GraphPad Prism, San Diego Calif.).",
  "data": [
    {"smiles": "Cn1nnc(-c2ccc(O[C@H]3CCC[C@H](C(=O)O)C3)c(C(F)(F)F)n2)c1CNC(=O)OCc1ccccc1", "note": "[Example 92, (1S,3S)-3-((6-(5-((((benzyloxy)carbonyl)amino)methyl)-1-methyl-1H-1,2,3-triazol-4-yl)-2-(trifluoro-methyl)pyridin-3-yl)oxy)cyclohexane-1-carboxylic acid]", "values": [
      {"measurement": "IC50", "result": 14, "unit": "nM"}
    ]},
    {"smiles": "CC(C)COC(=O)NCc1c(-c2ccc(O[C@H]3CCC[C@H](C(=O)O)C3)c(C(F)(F)F)n2)nnn1C", "note": "[Example 93, (1S,3S)-3-((6-(5-(((isobutoxy-carbonyl)amino)methyl)-1-methyl-1H-1,2,3-triazol-4-yl)-2-(trifluoro-methyl)pyridin-3-yl)oxy)cyclohexane-1-carboxylic acid]", "values": [
      {"measurement": "IC50", "result": 25, "unit": "nM"}
    ]},
    {"smiles": "CCCCOC(=O)NCc1c(-c2ccc(O[C@H]3CCC[C@H](C(=O)O)C3)c(C(F)(F)F)n2)nnn1C", "note": "[Example 94, (1S,3S)-3-((6-(5-(((butoxycarbonyl)amino)methyl)-1-methyl-1H-1,2,3-triazol-4-yl)-2-(trifluoromethyl)pyridin-3-yl)oxy)cyclohexane-1-carboxylic acid]", "values": [
      {"measurement": "IC50", "result": 14, "unit": "nM"}
    ]},
    {"smiles": "CCCOC(=O)NCc1c(-c2ccc(O[C@H]3CCC[C@H](C(=O)O)C3)c(C(F)(F)F)n2)nnn1C", "note": "[Example 95, (1S,3S)-3-((6-(1-methyl-5-(((propoxy-carbonyl)amino)methyl)-1H-1,2,3-triazol-4-yl)-2-(trifluoromethyl)pyridin-3-yl)oxy)cyclohexane-1-carboxylic acid]", "values": [
      {"measurement": "IC50", "result": 867, "unit": "nM"}
    ]},
    {"smiles": "Cn1nnc(-c2ccc(O[C@H]3CCC[C@H](C(=O)O)C3)c(C(F)(F)F)n2)c1CNC(=O)OC1CCCC1", "note": "[Example 96]", "values": [
      {"measurement": "IC50", "result": 33, "unit": "nM"}
    ]},
    {"smiles": "Cn1nnc(-c2ccc(O[C@H]3CCC[C@H](C(=O)O)C3)c(C(F)(F)F)n2)c1CNC(=O)OCCCCF", "note": "[Example 97, (1S,3S)-3-((6-(5-((((4-fluorobutoxy)carbonyl)amino)methyl)-1-methyl-1H-1,2,3-triazol-4-yl)-2-(trifluoro-methyl)pyridin-3-yl)oxy)cyclohexane-1-carboxylic acid]", "values": [
      {"measurement": "IC50", "result": 25, "unit": "nM"}
    ]},
    {"smiles": "Cn1nnc(-c2ccc(O[C@H]3CCC[C@H](C(=O)O)C3)c(C(F)F)n2)c1CNC(=O)OCc1ccccc1", "note": "[Example 98, (1S,3S)-3-((6-(5-((((benzyloxy)carbonyl)amino)methyl)-1-methyl-1H-1,2,3-triazol-4-yl)-2-(difluoro-methyl)pyridin-3-yl)oxy)cyclohexane-1-carboxylic acid]", "values": [
      {"measurement": "IC50", "result": 33, "unit": "nM"}
    ]},
    {"smiles": "CC(C)COC(=O)NCc1c(-c2ccc(O[C@H]3CCC[C@H](C(=O)O)C3)c(C(F)F)n2)nnn1C", "note": "[Example 99, (1S,3S)-3-((2-(difluoromethyl)-6-(5-(((isobutoxycarbonyl)amino)methyl)-1-methyl-1H-1,2,3-triazol-4-yl)pyridin-3-yl)oxy)cyclohexane-1-carboxylic acid]", "values": [
      {"measurement": "IC50", "result": 71, "unit": "nM"}
    ]},
    {"smiles": "CCCCOC(=O)NCc1c(-c2ccc(O[C@H]3CCC[C@H](C(=O)O)C3)c(C(F)F)n2)nnn1C", "note": "[Example 100, (1S,3S)-3-((6-(5-(((butoxycarbonyl)amino)methyl)-1-methyl-1H-1,2,3-triazol-4-yl)-2-(difluoromethyl)pyridin-3-yl)oxy)cyclohexane-1-carboxylic acid]", "values": [
      {"measurement": "IC50", "result": 39, "unit": "nM"}
    ]},
    {"smiles": "CCCOC(=O)NCc1c(-c2ccc(O[C@H]3CCC[C@H](C(=O)O)C3)c(C(F)F)n2)nnn1C", "note": "[Example 101, (1S,3S)-3-((2-(difluoromethyl)-6-(1-methyl-5-(((propoxycarbonyl)amino)methyl)-1H-1,2,3-triazol-4-yl)pyridin-3-yl)oxy)cyclohexane-1-carboxylic acid]", "values": [
      {"measurement": "IC50", "result": 2030, "unit": "nM"}
    ]},
    {"smiles": "COCc1nc(-c2nnn(C)c2CNC(=O)OCc2ccccc2)ccc1O[C@H]1CCC[C@H](C(=O)O)C1", "note": "[Example 102, (1S,3S)-3-((6-(5-((((benzyloxy)carbonyl)amino)methyl)-1-methyl-1H-1,2,3-triazol-4-yl)-2-(methoxy-methyl)pyridin-3-yl)oxy)cyclohexane-1-carboxylic acid]", "values": [
      {"measurement": "IC50", "result": 30, "unit": "nM"}
    ]},
    {"smiles": "Cc1nc(-c2nnn(C)c2CCNC(=O)OCc2ccccc2Cl)ccc1O[C@H]1CCC[C@H](C(=O)O)C1", "note": "[Example 103, (1S,3S)-3-((6-(5-(2-((((2-chloro-benzyl)oxy)carbonyl)amino)ethyl)-1-methyl-1H-1,2,3-triazol-4-yl)-2-methylpyridin-3-yl)oxy)cyclohexane-1-carboxylic acid]", "values": [
      {"measurement": "IC50", "result": 595, "unit": "nM"}
    ]},
    {"smiles": "Cc1nc(-c2nnn(C)c2CCNC(=O)OCC(C)(C)C)ccc1O[C@H]1CCC[C@H](C(=O)O)C1", "note": "[Example 104, (1S,3S)-3-((2-methyl-6-(1-methyl-5-(2-(((neopentyloxy)carbonyl)amino)ethyl)-1H-1,2,3-triazol-4-yl)pyridin-3-yl)oxy)cyclohexane-1-carboxylic acid]", "values": [
      {"measurement": "IC50", "result": 1360, "unit": "nM"}
    ]},
    {"smiles": "Cc1nc(-c2nnn(C)c2CCNC(=O)OC2CCCC2)ccc1O[C@H]1CCC[C@H](C(=O)O)C1", "note": "[Example 105, (1S,3S)-3-((6-(5-(2-(((cyclopentyl-oxy)carbonyl)amino)ethyl)-1-methyl-1H-1,2,3-triazol-4-yl)-2-methyl-pyridin-3-yl)oxy)cyclohexane-1-carboxylic acid]", "values": [
      {"measurement": "IC50", "result": 1830, "unit": "nM"}
    ]},
    {"smiles": "Cc1nc(-c2nnn(C)c2CCNC(=O)OCc2ccccc2)ccc1O[C@H]1CCC[C@H](C(=O)O)C1", "note": "[Example 106, (1S,3S)-3-((6-(5-(2-(((benzyloxy)carbonyl)amino)ethyl)-1-methyl-1H-1,2,3-triazol-4-yl)-2-methylpyridin-3-yl)oxy)cyclohexane-1-carboxylic acid]", "values": [
      {"measurement": "IC50", "result": 525, "unit": "nM"}
    ]},
    {"smiles": "CCCCOC(=O)NCCc1c(-c2ccc(O[C@H]3CCC[C@H](C(=O)O)C3)c(C)n2)nnn1C", "note": "[Example 107, (1S,3S)-3-((6-(5-(2-((butoxy-carbonyl)amino)ethyl)-1-methyl-1H-1,2,3-triazol-4-yl)-2-methylpyridin-3-yl)oxy)cyclohexane-1-carboxylic acid]", "values": [
      {"measurement": "IC50", "result": 1460, "unit": "nM"}
    ]},
    {"smiles": "Cc1nc(-c2nnn(C)c2CNC(=O)N(C)CC2CCC2)ccc1O[C@H]1CCC[C@H](C(=O)O)C1", "note": "[Example 108, (1S,3S)-3-((6-(5-((3-(cyclobutylmethyl)-3-methylureido)methyl)-1-methyl-1H-1,2,3-triazol-4-yl)-2-methylpyridin-3-yl)oxy)cyclohexanecarboxylic acid]", "values": [
      {"measurement": "IC50", "result": 82, "unit": "nM"}
    ]},
    {"smiles": "Cc1nc(-c2nnn(C)c2CNC(=O)N(C)Cc2ccccc2)ccc1O[C@H]1CCC[C@H](C(=O)O)C1", "note": "[Example 109, (1S,3S)-3-((6-(5-((3-benzyl-3-methyl-ureido)methyl)-1-methyl-1H-1,2,3-triazol-4-yl)-2-methylpyridin-3-yl)oxy)cyclohexanecarboxylic acid]", "values": [
      {"measurement": "IC50", "result": 85, "unit": "nM"}
    ]},
    {"smiles": "CCCN(C)C(=O)NCc1c(-c2ccc(O[C@H]3CCC[C@H](C(=O)O)C3)c(C)n2)nnn1C", "note": "[Example 110, (1S,3S)-3-((2-methyl-6-(1-methyl-5-((3-methyl-3-propylureido)methyl)-1H-1,2,3-triazol-4-yl)pyridin-3-yl)oxy)cyclohexanecarboxylic acid]", "values": [
      {"measurement": "IC50", "result": 217, "unit": "nM"}
    ]},
    {"smiles": "CCCCCN(C)C(=O)NCc1c(-c2ccc(O[C@H]3CCC[C@H](C(=O)O)C3)c(C)n2)nnn1C", "note": "[Example 111, (1S,3S)-3-((2-methyl-6-(1-methyl-5-((3-methyl-3-pentylureido)methyl)-1H-1,2,3-triazol-4-yl)pyridin-3-yl)oxy)cyclohexanecarboxylic acid]", "values": [
      {"measurement": "IC50", "result": 226, "unit": "nM"}
    ]},
    {"smiles": "Cc1nc(-c2nnn(C)c2CNC(=O)NCc2ccccc2)ccc1O[C@H]1CCC[C@H](C(=O)O)C1", "note": "[Example 112, (1S,3S)-3-((6-(5-((3-benzylureido)methyl)-1-methyl-1H-1,2,3-triazol-4-yl)-2-methylpyridin-3-yl)oxy)cyclohexane-1-carboxylic acid]", "values": [
      {"measurement": "IC50", "result": 63, "unit": "nM"}
    ]},
    {"smiles": "Cc1nc(-c2nnn(C)c2CN(C)C(=O)NCc2ccccc2)ccc1O[C@H]1CCC[C@H](C(=O)O)C1", "note": "[Example 113, (1S,3S)-3-((6-(5-((3-benzyl-1-methylureido)methyl)-1-methyl-1H-1,2,3-triazol-4-yl)-2-methyl-pyridin-3-yl)oxy)cyclohexane-1-carboxylic acid]", "values": [
      {"measurement": "IC50", "result": 218, "unit": "nM"}
    ]},
    {"smiles": "Cc1nc(-c2nnn(C)c2CNC(=O)N(C)CCC2CC2)ccc1O[C@H]1CCC[C@H](C(=O)O)C1", "note": "[Example 114, (1S,3S)-3-((6-(5-((3-(2-cyclopropyl-ethyl)-3-methylureido)methyl)-1-methyl-1H-1,2,3-triazol-4-yl)-2-methylpyridin-3-yl)oxy)cyclohexane-1-carboxylic acid]", "values": [
      {"measurement": "IC50", "result": 112, "unit": "nM"}
    ]},
    {"smiles": "Cc1nc(-c2nnn(C)c2CN(C)C(=O)N(C)Cc2ccccc2)ccc1O[C@H]1CCC[C@H](C(=O)O)C1", "note": "[Example 115, (1S,3S)-3-((6-(5-((3-benzyl-1,3-dimethylureido)methyl)-1-methyl-1H-1,2,3-triazol-4-yl)-2-methyl-pyridin-3-yl)oxy)cyclohexane-1-carboxylic acid]", "values": [
      {"measurement": "IC50", "result": 166, "unit": "nM"}
    ]},
    {"smiles": "Cc1nc(-c2nnn(C)c2CNC(=O)N(C)CCC(C)C)ccc1O[C@H]1CCC[C@H](C(=O)O)C1", "note": "[Example 116, (1S,3S)-3-((6-(5-((3-isopentyl-3-methyl-ureido)methyl)-1-methyl-1H-1,2,3-triazol-4-yl)-2-methylpyridin-3-yl)oxy)cyclohexane-1-carboxylic acid]", "values": [
      {"measurement": "IC50", "result": 92, "unit": "nM"}
    ]},
    {"smiles": "Cc1nc(-c2nnn(C)c2CNC(=O)NC2CC3CCC2C3)ccc1O[C@H]1CCC[C@H](C(=O)O)C1", "note": "(stereo partly drawn) [Example 117, (1S,3S)-3-((6-(5-((3-(bicyclo [2.2.1]heptan-2-yl)ureido)methyl)-1-methyl-1H-1,2,3-triazol-4-yl)-2-methylpyridin-3-yl)oxy)cyclohexane-1-carboxylic acid]", "values": [
      {"measurement": "IC50", "result": 420, "unit": "nM"}
    ]},
    {"smiles": "Cc1nc(-c2nnn(C)c2CNC(=O)NCCC(C)C)ccc1O[C@H]1CCC[C@H](C(=O)O)C1", "note": "[Example 122, (1S,3S)-3-((6-(5-((3-isopentyl-ureido)methyl)-1-methyl-1H-1,2,3-triazol-4-yl)-2-methylpyridin-3-yl)oxy)cyclohexane-1-carboxylic acid]", "values": [
      {"measurement": "IC50", "result": 101, "unit": "nM"}
    ]}
  ]
}
